Results from US9193699B2, “Apoptosis inducing compounds” (INSTITUT NATIONAL DE LA SANTE ET DE LA RECHERCHE MEDICALE …, priority 2011, dated 2015).

Tests used:
[1] = test system: Human breast tumor SUM149 cells; assay: Inhibition of tumor cell growth (alamar blue), SUM149; assay type: cell-based; settings: 120 h, calculated on the basis of cell growth inhibition, day 5, alamar blue, read-out: IC50 for the inhibition of SUM149 tumor cells growth
Protocol: (§1) All biological experiments (Examples 2 to 9) have been performed with recommended cell line specific culture medium. For SUM149 and L226, culture medium is supplemented with 10% Fetal Calf Serum. For HME-1 and MCF-10A, culture medium is supplemented with 5% Horse Serum.
Human breast tumor SUM149 cells (Inflammatory Breast Cancer (IBC) of basal subtype) were plated in a 96 well plate at 3000 cells/100 μL at 37° C. in 5% CO2. Compounds 1, 3, 4, 5, 6, 7, 8, 9, 10, 11, 12, 13, 14 at 10 μM were added at day 0 and day 3. The number of viable cells was determined in triplicate at day 5 by incubating 10 μL of the alamar blue staining solution for 2 hours at 37° C. (FIG. 1).
(§2) Human breast tumor SUM149 cells were plated in a 96 well plate at 3000 cells/100 μL at 37° C. in 5% CO2. Serial dilutions of drugs (compounds 1, 3 or 4) ranging from 20 μM to 300 nM were added at day 0 and day 3. The number of viable cells was determined in triplicate at day 5 by incubating 10 μL of the alamar blue staining solution for 2 hours at 37° C. (FIG. 2).
IC50 values of compounds 1-14 for the inhibition of SUM149 and L226 tumor cells growth were measured (according to the experimental procedure of Examples 2 and 3):
Human breast tumor SUM149 cells were plated in a 96 well plate at 3000 cells/100 μL at 37° C. in 5% CO2 in recommended medium containing 10% FCS or in synthetic medium without FCS. Serial dilutions of drug (compound 4) ranging from 10 μM to 0.16 μM were added at day 0 and day 3. The number of viable cells was determined in triplicate at day 5 by incubating 10 μL of the alamar blue staining solution for 2 hours at 37° C. (FIG. 11). The […] in recommended medium containing 10% FCS was measured at 2 μM, while it was measured at 0.6 μM without FCS.

[2] = test system: Human breast tumor L226 cells; assay: Inhibition of tumor cell growth (alamar blue), L226; assay type: cell-based; settings: 120 h, calculated on the basis of cell growth inhibition, day 5, alamar blue
Protocol: as §1
Human breast tumor L226 cells (Inflammatory Breast Cancer (IBC) of ERB-B2 subtype) were plated in a 96 well plate at 3000 cells/100 μL at 37° C. in 5% CO2. Serial dilutions of drugs (compounds 1, 3 or 4) ranging from 20 μM to 300 nM were added at day 0 and day 3. The number of viable cells was determined in triplicate at day 5 by incubating 10 μL of the alamar blue staining solution for 2 hours at 37° C. (FIG. 3).
IC50 values of compounds 1-14 for the inhibition of SUM149 and L226 tumor cells growth were measured (according to the experimental procedure of Examples 2 and 3): […]

[3] = test system: Human normal mammary epithelial MCF-10A cells; assay: Effect on growth of normal cells (alamar blue), MCF-10A; assay type: cell-based; settings: calculated on the basis of cell growth inhibition
Protocol: as §1
as §2, with “normal mammary epithelial MCF-10A” for “breast tumor SUM149”, “5).” for “2).”
(§3) IC50 values of compounds 1-14 for the inhibition of MCF-10A and HME-1 normal cells growth were also measured (according to the experimental procedure of Examples 4 and 5): […]

[4] = test system: Human normal mammary epithelial HME-1 cells; assay: Effect on growth of normal cells (alamar blue), HME-1; assay type: cell-based; settings: HME1, calculated on the basis of cell growth inhibition
Protocol: as §1
as §2, with “normal mammary epithelial HME-1” for “breast tumor SUM149”, “4).” for “2).”
as §3

[5] = test system: caspase-3 and caspase-7 in SUM149 cells; assay: Caspase 3/7 activation (Caspase-Glo 3/7) in SUM149 tumor cells; assay type: cell-based; settings: Homo sapiens, R=RLU at 20 μM/RLU at 0 μM, 24 h, read-out: Caspase 3/7 activation R (RLU fold increase from untreated cells)
Protocol: (§4) Human breast tumor SUM149 cells were plated in a 96 well plate at 10000 cells/100 μL at 37° C. in 5% CO2. Serial dilutions of drugs (compounds 1, 3 or 4) ranging from 20 μM to 300 nM were added at day 0. Active caspase-3 and caspase-7 were measured in triplicate after 24 h treatment by incubating 50 μL of the Caspase-Glo 3/7 reagent for 60 min at 25° C. This reagent containing the proluminescent tetrapeptide sequence DEVD in a cell lysis buffer (Promega) (FIG. 6).
(§5) Caspase 3/7 activation in SUM149 and L226 tumor cells was measured.
(§6) The calculated values R correspond to Relative Luminescence Units (RLU) fold increase from untreated cells (R=RLU at 20 μM/RLU at 0 μM).

[6] = test system: caspase-3 and caspase-7 in L226 cells; assay: Caspase 3/7 activation (Caspase-Glo 3/7) in L226 tumor cells; assay type: cell-based; settings: Homo sapiens, R=RLU at 20 μM/RLU at 0 μM, 24 h, read-out: Caspase 3/7 activation R (RLU fold increase from untreated cells)
Protocol: as §4, with “L226” for “SUM149”, “7).” for “6).”
as §5, §6

[7] = test system: caspase-3 and caspase-7 in MCF-10A cells; assay: Caspase 3/7 activation (Caspase-Glo 3/7) in MCF-10A normal cells; assay type: cell-based; settings: Homo sapiens, R=RLU at 20 μM/RLU at 0 μM, 24 h, read-out: Caspase 3/7 activation R (RLU fold increase from untreated cells)
Protocol: as §4, with “normal mammary epithelial MCF-10A” for “breast tumor SUM149”, “9).” for “6).”
as §6
(§7) Caspase 3/7 activation in MCF-10A and HME-1 normal cells was also measured.

[8] = test system: caspase-3 and caspase-7 in HME-1 cells; assay: Caspase 3/7 activation (Caspase-Glo 3/7) in HME-1 normal cells; assay type: cell-based; settings: Homo sapiens, HME1, R=RLU at 20 μM/RLU at 0 μM, 24 h, read-out: Caspase 3/7 activation R (RLU fold increase from untreated cells)
Protocol: as §4, with “normal mammary epithelial HME-1” for “breast tumor SUM149”, “8).” for “6).”
as §6, §7

[9] = test system: Human breast tumor SUM149 cells; assay: Annexin V/7-AAD apoptosis with or without Z-VAD-FMK; assay type: cell-based; settings: 2.5 to 20 μM, 48 h, with Z-VAD-FMK pan-caspases inhibitor
Protocol: Human breast tumor SUM149 cells were plated in dishes at a concentration of 10^6 cells/[…] Cells were treated with compound 3 or compound 4 (2.5 to 20 μM) for 48 h, with or without Z-VAD-FMK, a pan-caspases inhibitor. Cells were double stained with annexinV-FITC and 7-AAD to measure cell apoptosis.

[10] = test system: tumors derived from MMTC-ErbB2/neu mice; assay: TUNEL assay of tumor apoptosis in MMTV-ErB2/Neu mice; assay type: in vivo; settings: 100 mg/kg for 30 days
Protocol: DNA fragmentation in apoptotic cells was analyzed by the TUNEL assay (ApopTag detection kit, Millipore) as recommended by the manufacturer.
Briefly, 4 μm sections of paraffin-embedded fixed tissue from tumors derived from MMTC-ErbB2/neu mice treated with vehicle or with Compound 12, 4 or 8 (100 mg/kg) for 30 days, were deparaffined with successive histolemon and ethanol washes, then treated with 20 μg/mL proteinase K for 15 min at room temperature. Endogenous peroxidise was quenched with 3% hydrogen peroxide. […] Coloration was performed using the diaminobenzidine mixed substrate (Dako). Counterstaining was done with a solution of 1% methyl green for 5 min at room temperature. After distilled water and N-butanol washes, specimens were mounted in Pertex medium (CellPath). Observations were made using the Leica DMD108 digital microimaging device (Leica Microsystems GmbH).

IC50 [1]	IC50 [2]	Compound	IC50 [3]	IC50 [4]	fold induction at 20 µM [5]	fold induction at 20 µM [6]	fold induction at 20 µM [7]	fold induction at 20 µM [8]	effect of Z-VAD treatment on compound induced apoptosis (Annexin V positive cells) [9]	percentage of cells having TdT positive nuclei in tumors [10]
2.5 µM	2.5 µM	CC(C)c1ccc(S(=O)(=O)N2CCSC(C)(C)[C@@H]2C(=O)NO)cc1 [Compound 3, (3S)—N-hydroxy-4-[(4-isopropylphenyl)sulfonyl]-2,2-dimethyl-3-thiomorpholine carboxamide]	> 20 µM	> 20 µM	6.3	2.1	1	1	fully impaired	–
7.5 µM	5 µM	CCc1ccc(S(=O)(=O)N2CCSC(C)(C)[C@@H]2C(=O)NO)cc1 [Compound 8, (3S)—N-hydroxy-4-[(4-ethylphenyl)sulfonyl]-2,2-dimethyl-3-thiomorpholine carboxamide]	> 20 µM	> 20 µM	5.7	2.3	–	–	–	rare
